{"source": "patent US10583096B2", "about": "“Use of cannabinoids in the treatment of epilepsy” (GW Research Limited, priority 2016, dated 2020)", "key": {"Dravet syndrome": {"system": "Dravet syndrome", "conditions": "treatment of Dravet syndrome, announced March 2016; cited from earlier work"}, "[1]": {"system": "adult patients with secondary generalized epilepsy", "conditions": "of eight adult patients with secondary generalized epilepsy; cited from earlier work"}, "mice": {"system": "mice", "conditions": "after administration of pro-convulsant drugs or an electric current; cited from earlier work"}, "[2]": {"system": "institutionalized adult patients", "conditions": "200 mg/day of pure CBD, twelve institutionalized adult patients, open label; cited from earlier work"}, "[3]": {"system": "subjects with SWS brain involvement and refractory epilepsy", "assay": "Expanded access compassionate use program of CBD in Sturge Weber syndrome: seizure frequency and quality of life", "format": "in vivo, human", "conditions": "for Week 14 (number of seizures): CBD target dose 15-25 mg/kg/day; for Decrease in seizure frequency (%): week 14 versus baseline", "method": "“Percentage decrease in seizure frequency” is defined as the number of seizures at week 14 minus the number of seizures at baseline divided by the number of seizures at baseline multiplied by 100.\nFour subjects with SWS brain involvement and refractory epilepsy were enrolled in an expanded access compassionate use program for CBD. These subjects were treated with a highly purified extract of cannabidiol (CBD) obtained from a cannabis plant. Frequency of seizures was recorded at each visit, as were reported quality of life changes, including mood, behaviour, and cognitive function.\nData were compared in the 56-day pre-treatment period, the 56-day period after starting maintenance dose (Week 14), and at most recent visit.\nThe participants in the study were taking at the time of entry into the study between one and four concomitant AEDs.\nPatient 1 was taking leviteracetam alone. Patient 2 was taking leviteracetam, valproate, felbamate and clobazam. Patient 3 was taking valproate and topiramate. Patient 4 was taking oxycarbamazepine and lacosamide.\nCBD was administered at a target dose of 15-25 mg/kg/day.\nAll patients entered a baseline period of 14 weeks when parents/caregivers kept prospective seizure diaries, noting all countable seizure types.\nLaboratory testing for hematologic, liver, kidney function and concomitant AED levels was performed at baseline, and after every 4 weeks of CBD therapy."}, "[4]": {"system": "multiple species and models", "conditions": "previous studies in animals; cited from earlier work"}, "adult patients": {"system": "adult patients", "conditions": "200 mg/day of pure CBD, four adult patients; cited from earlier work"}, "[5]": {"conditions": "in vivo; cited from earlier work"}}, "data": [{"smiles": "C=C(C)[C@@H]1CCC(C)=C[C@H]1c1c(O)cc(CCCCC)cc1O", "note": "[CBD, Cannabidiol]", "values": [{"measurement": "outcome of the Phase 3 study", "setting": "Dravet syndrome", "value": "positive results"}, {"measurement": "number of patients with a marked reduction of seizures", "setting": "[1]", "value": 4}, {"measurement": "prevention of seizures", "setting": "mice", "value": "able to prevent seizures"}, {"measurement": "control of seizures", "setting": "[2]", "value": "ineffective"}, {"measurement": "Week 14 (number of seizures)", "setting": "[3]; Patient 1, concomitant leviteracetam alone, baseline 67 seizures", "value": "60 number of seizures"}, {"measurement": "Decrease in seizure frequency (%)", "setting": "[3]; Patient 1, concomitant leviteracetam alone", "value": 10, "unit": "%"}, {"measurement": "Week 14 (number of seizures)", "setting": "[3]; Patient 2, concomitant leviteracetam, valproate, felbamate and clobazam, baseline 6 seizures", "value": "1 number of seizures"}, {"measurement": "Decrease in seizure frequency (%)", "setting": "[3]; Patient 2, concomitant leviteracetam, valproate, felbamate and clobazam", "value": 83, "unit": "%"}, {"measurement": "Week 14 (number of seizures)", "setting": "[3]; Patient 3, concomitant valproate and topiramate, baseline 10 seizures", "value": "1 number of seizures"}, {"measurement": "Decrease in seizure frequency (%)", "setting": "[3]; Patient 3, concomitant valproate and topiramate", "value": 90, "unit": "%"}, {"measurement": "Week 14 (number of seizures)", "setting": "[3]; Patient 4, concomitant oxycarbamazepine and lacosamide, baseline 6 seizures", "value": "4 number of seizures"}, {"measurement": "Decrease in seizure frequency (%)", "setting": "[3]; Patient 4, concomitant oxycarbamazepine and lacosamide", "value": 33, "unit": "%"}, {"measurement": "effectiveness in the treatment of SWS", "setting": "[3]; conclusion from the four patients", "value": "effective"}, {"measurement": "reported quality of life", "setting": "[3]; patient 1", "value": "remained unchanged"}, {"measurement": "reported quality of life", "setting": "[3]; three of the four patients (patients 2, 3 and 4)", "value": "improved quality of life"}, {"measurement": "cognitive function", "setting": "[3]; three subjects (patients 2, 3 and 4)", "value": "improvements in cognitive function"}, {"measurement": "share of patients who benefited from a reduction in the number of seizures", "setting": "[3]; treatment-resistant SWS patients, four subjects", "value": "three quarters"}, {"measurement": "mood and behaviour", "setting": "[3]; two subjects (patient 2 and 3)", "value": "improvements in mood and behaviour"}, {"measurement": "anticonvulsant efficacy", "setting": "[4]", "value": "anticonvulsant efficacy in multiple species and models"}, {"measurement": "patients who became seizure free", "setting": "adult patients", "value": "two of the four patients"}, {"measurement": "seizure frequency in the remainder of the patients", "setting": "adult patients", "value": "unchanged"}]}, {"smiles": "CCCCCc1cc(O)c2c(c1)OC(C)(C)[C@@H]1CCC(C)=C[C@@H]21", "note": "[THC, Tetrahydrocannabinol]", "values": [{"measurement": "effect on convulsions", "setting": "[5]", "value": "pro-convulsant"}]}]}
